Measured values reported in article PMC12613848, “First in human phase 1 study of DT2216, a selective BCL-xL degrader, in patients with relapsed/refractory solid malignancies” (Journal of Hematology & Oncology, 2025).
Read-outs that look alike come from different tables or passages of the source.

Test: Plasma pharmacokinetics of DT2216 in patients, phase 1 dose escalation
Assay type: in vivo, human
Conditions: human, plasma, iv, plasma; for clearance: read-out: CL (converted); for half-life: read-out: T½ (converted); for Vd: read-out: Vdss; for Tmax: median (min, max)
Description: Dose escalation consisted of the administration of DT2216 intravenously twice weekly at several different doses outlined in protocol attached. The starting dose was 0.04 mg/kg, established based on pre-clinical toxicity studies. Safety was evaluated using CTCAE version 5.0. The initial three dose levels enrolled one patient, following which for dose level 4 and 5, a 3 + 3 design was utilized following a 100% incremental dose increase for dose levels 2 to 5 until the first dose limiting toxicity (DLT) in cycle 1 was observed. Thereafter, a modified Fibonacci sequence was used to define dose escalation increments until the maximum tolerated dose (MTD) was reached as described in protocol. If no dose-limiting toxicity (DLT) was observed during the DLT monitoring period of first 28 days, the next patient was enrolled at the next higher dose level. Dose-limiting toxicities (DLTs) during the first treatment cycle were defined as any Grade 5 toxicity; Grade 4 neutropenia lasting > 7 days; febrile neutropenia; Grade 4 thrombocytopenia or Grade 3 thrombocytopenia with clinically significant hemorrhage or lasting ≥ 7 days; and Grade ≥ 3 non-hematologic toxicities, excluding nausea, vomiting, or diarrhea lasting ≤ 3 days or transient laboratory abnormalities resolving within 72 h. Hepatotoxicity meeting Hy’s law criteria was also considered a DLT. Transient Grade 3–4 electrolyte abnormalities resolving to ≤ Grade 2 within 72 h were not considered DLTs.
Patients were allowed a maximum of two intra-patient dose escalations. Patients received DT2216 by intravenous infusion on days 1 and 4 weekly for at least 4 weeks, with each cycle consisting of a 28-day cycle for a maximum duration of 1 year until disease progression, unacceptable toxicity, or other withdrawal criteria, as listed in the protocol. The extent of disease was evaluated using imaging studies and disease-appropriate tumor markers every 8 weeks from day 1 of the first cycle. RP2D was established based on MTD as well as other relevant data, including clinical signals of activity, PK, and PD data.
Premedication prior to each infusion was at the discretion of the investigator or according to institutional guidelines. Patient assessment and follow-up procedures can be found in the schedule of assessments in this study. The clinical response was evaluated using RECIST v1.1 per protocol. Blood samples were collected for PK analysis before and after post-infusion at defined intervals, along with platelet counts. Exploratory biomarkers include (but are not limited to) the assessment of BCL-XL and VHL levels in peripheral white blood cells (WBC).
Throughout the course of the dose escalation trial, only one dose-limiting toxicity was observed, with grade 4 thrombocytopenia at a dose level of 0.32 mg/kg. […] The pharmacokinetic parameters of DT2216 were determined in patients following doses on Cycle 1 Day 1 and Cycle 1 Day 22 (Tables 4 and 5). […] AUC0-∞ values ranged from 8650 to 72,300 ng · h/mL over the dose range of 0.04 mg/kg 0.4 mg/kg. […] The volume of distribution at steady state (Vss) was small (< 100 mL/kg) and consistent across the dose groups. Following repeated dosing, accumulation of DT2216 in plasma was not observed with twice weekly dosing, with accumulation ratio values ranging from 0.74 to 1.07 on Cycle 1 Day 22 ([…]) across the dose groups.

[1] = 0.12 mg/kg, Cycle 1 Day 22, 0.12 mg/kg IV BIW, mean (CV%), N = 1
[2] = 0.24 mg/kg, Cycle 1 Day 1, 0.24 mg/kg IV, mean (CV%), N = 7
[3] = 0.24 mg/kg, Cycle 1 Day 22, 0.24 mg/kg IV BIW, mean (CV%), N = 6
[4] = 0.32 mg/kg, Cycle 1 Day 1, 0.32 mg/kg IV, mean (CV%), N = 5
[5] = 0.32 mg/kg, Cycle 1 Day 22, 0.32 mg/kg IV BIW, mean (CV%), N = 5
[6] = 0.4 mg/kg, Cycle 1 Day 1, 0.4 mg/kg IV, mean (CV%), N = 4
[7] = 0.4 mg/kg, Cycle 1 Day 22, 0.4 mg/kg IV BIW, mean (CV%), N = 4

## Cc1ncsc1-c1ccc([C@H](C)NC(=O)[C@@H]2C[C@@H](O)CN2C(=O)[C@@H](NC(=O)CCCCCC(=O)N2CCN(CC[C@H](CSc3ccccc3)Nc3ccc(S(=O)(=O)NC(=O)c4ccc(N5CCN(CC6=C(c7ccc(Cl)cc7)CCC(C)(C)C6)CC5)cc4)cc3S(=O)(=O)C(F)(F)F)CC2)C(C)(C)C)cc1 [DT2216]
[1]
  clearance: 0.138 mL/min/kg
  half-life: 5.24 h
  Vd: 0.0665 L/kg
0.12 mg/kg, Cycle 1 Day 22, 0.12 mg/kg IV BIW, mean (CV%), N = 1, read-out: Cmax
  Cmax: 2190 ng/mL
0.12 mg/kg, Cycle 1 Day 22, 0.12 mg/kg IV BIW, N = 1
  Tmax: 2.5 h
0.24 mg/kg, Cycle 1 Day 1, 0.24 mg/kg IV, mean (CV%), N = 6, read-out: AUC0−24
  AUC(0-t): 24500 ng·h/mL
0.24 mg/kg, Cycle 1 Day 1, 0.24 mg/kg IV, mean (CV%), N = 6, read-out: AUClast
  AUC(0-t): 37600 ng·h/mL
0.24 mg/kg, Cycle 1 Day 1, 0.24 mg/kg IV, mean (CV%), N = 7, read-out: AUC0−∞
  AUC(0-inf): 36500 ng·h/mL
[2]
  clearance: 0.122 mL/min/kg
  half-life: 10.4 h
  Vd: 0.0839 L/kg
0.24 mg/kg, Cycle 1 Day 1, 0.24 mg/kg IV, mean (CV%), N = 7, read-out: Cmax
  Cmax: 4080 ng/mL
0.24 mg/kg, Cycle 1 Day 1, 0.24 mg/kg IV, N = 7
  Tmax: 0.75 h
0.24 mg/kg, Cycle 1 Day 22, 0.24 mg/kg IV BIW, mean (CV%), N = 6, read-out: AUC0−24
  AUC(0-t): 26300 ng·h/mL
0.24 mg/kg, Cycle 1 Day 22, 0.24 mg/kg IV BIW, mean (CV%), N = 6, read-out: AUC0−∞
  AUC(0-inf): 30100 ng·h/mL
0.24 mg/kg, Cycle 1 Day 22, 0.24 mg/kg IV BIW, mean (CV%), N = 6, read-out: AUClast
  AUC(0-t): 26400 ng·h/mL
[3]
  clearance: 0.15 mL/min/kg
  half-life: 7.27 h
  Vd: 0.0939 L/kg
0.24 mg/kg, Cycle 1 Day 22, 0.24 mg/kg IV BIW, mean (CV%), N = 6, read-out: Cmax
  Cmax: 3090 ng/mL
0.24 mg/kg, Cycle 1 Day 22, 0.24 mg/kg IV BIW, N = 6
  Tmax: 2.5 h
0.32 mg/kg, Cycle 1 Day 1, 0.32 mg/kg IV, mean (CV%), N = 5, read-out: AUC0−∞
  AUC(0-inf): 41500 ng·h/mL
[4]
  clearance: 0.132 mL/min/kg
  half-life: 7.09 h
  Vd: 0.0683 L/kg
0.32 mg/kg, Cycle 1 Day 1, 0.32 mg/kg IV, mean (CV%), N = 6, read-out: AUC0−24
  AUC(0-t): 33300 ng·h/mL
0.32 mg/kg, Cycle 1 Day 1, 0.32 mg/kg IV, mean (CV%), N = 6, read-out: AUClast
  AUC(0-t): 43200 ng·h/mL
0.32 mg/kg, Cycle 1 Day 1, 0.32 mg/kg IV, mean (CV%), N = 6, read-out: Cmax
  Cmax: 5710 ng/mL
0.32 mg/kg, Cycle 1 Day 1, 0.32 mg/kg IV, N = 6
  Tmax: 0.75 h
0.32 mg/kg, Cycle 1 Day 22, 0.32 mg/kg IV BIW, mean (CV%), N = 5, read-out: AUC0−24
  AUC(0-t): 32700 ng·h/mL
0.32 mg/kg, Cycle 1 Day 22, 0.32 mg/kg IV BIW, mean (CV%), N = 5, read-out: AUC0−∞
  AUC(0-inf): 35000 ng·h/mL
0.32 mg/kg, Cycle 1 Day 22, 0.32 mg/kg IV BIW, mean (CV%), N = 5, read-out: AUClast
  AUC(0-t): 32900 ng·h/mL
[5]
  clearance: 0.154 mL/min/kg
  half-life: 5.82 h
  Vd: 0.0837 L/kg
0.32 mg/kg, Cycle 1 Day 22, 0.32 mg/kg IV BIW, mean (CV%), N = 6, read-out: Cmax
  Cmax: 4480 ng/mL
0.32 mg/kg, Cycle 1 Day 22, 0.32 mg/kg IV BIW, N = 6
  Tmax: 2.5 h
0.4 mg/kg, Cycle 1 Day 1, 0.4 mg/kg IV, mean (CV%), N = 4, read-out: AUC0−24
  AUC(0-t): 53000 ng·h/mL
0.4 mg/kg, Cycle 1 Day 1, 0.4 mg/kg IV, mean (CV%), N = 4, read-out: AUC0−∞
  AUC(0-inf): 73200 ng·h/mL
0.4 mg/kg, Cycle 1 Day 1, 0.4 mg/kg IV, mean (CV%), N = 4, read-out: AUClast
  AUC(0-t): 72300 ng·h/mL
[6]
  clearance: 0.0928 mL/min/kg
  half-life: 10.7 h
  Vd: 0.0709 L/kg
0.4 mg/kg, Cycle 1 Day 1, 0.4 mg/kg IV, mean (CV%), N = 4, read-out: Cmax
  Cmax: 8590 ng/mL
0.4 mg/kg, Cycle 1 Day 1, 0.4 mg/kg IV, N = 4
  Tmax: 0.75 h
0.4 mg/kg, Cycle 1 Day 22, 0.4 mg/kg IV BIW, mean (CV%), N = 4, read-out: AUC0−24
  AUC(0-t): 53700 ng·h/mL
0.4 mg/kg, Cycle 1 Day 22, 0.4 mg/kg IV BIW, mean (CV%), N = 4, read-out: AUC0−∞
  AUC(0-inf): 59500 ng·h/mL
0.4 mg/kg, Cycle 1 Day 22, 0.4 mg/kg IV BIW, mean (CV%), N = 4, read-out: AUClast
  AUC(0-t): 54000 ng·h/mL
[7]
  clearance: 0.117 mL/min/kg
  half-life: 6.7 h
  Vd: 0.0729 L/kg
0.4 mg/kg, Cycle 1 Day 22, 0.4 mg/kg IV BIW, mean (CV%), N = 4, read-out: Cmax
  Cmax: 6270 ng/mL
0.4 mg/kg, Cycle 1 Day 22, 0.4 mg/kg IV BIW, N = 4
  Tmax: 2.5 h
Over dose range 0.04 mg/kg to 0.4 mg/kg IV, read-out: AUC0-∞ values
  AUC(0-inf): 8650 to 72300 ng·h/mL
Over dose range 0.04 mg/kg to 0.4 mg/kg IV, read-out: mean Cmax values
  Cmax: 738 to 8590 ng/mL
